Tests used:
[1] = tested on: CaR-1 (Colorectal Carcinoma); test: Bliss excess, mean over the matrix (fraction); higher = more synergy
Procedure, shortened: (§1)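 Bliss excess equals the observed combination effect minus the expected value EA + EB − EA·EB, where EA and EB are the effects of each agent alone. Combination Emax is the second-highest inhibition within the matrix. Inhibition was scaled from CellTiter-Glo 2.0 luminescence, with 0 set by vehicle wells and 1 by blank wells, after 72 hours of two-drug dosing of cells plated in 1536-well plates.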

HOS (Osteosarcoma) = test: as above
Procedure, shortened: as §1

[2] = tested on: HO-1-N-1 (Oral Cavity Carcinoma); test: as above
Procedure, shortened: as §1

[3] = tested on: CCRF-CEM (T-Lymphoblastic Leukemia); test: as above
Procedure, shortened: as §1

KELLY (Neuroblastoma) = test: as above
Procedure, shortened: as §1

[4] = tested on: Ramos-2G6-4C10 (Burkitt's Lymphoma); test: as above
Procedure, shortened: as §1

NB10 (Neuroblastoma) = test: as above
Procedure, shortened: as §1

[5] = tested on: HT-1376 (Bladder Carcinoma); test: as above
Procedure, shortened: as §1

[6] = tested on: CAL-148 (Breast Carcinoma); test: as above
Procedure, shortened: as §1

[7] = tested on: NCI-H82 (Small Cell Lung Carcinoma); test: as above
Procedure, shortened: as §1

[8] = tested on: LB831-BLC (Bladder Carcinoma); test: as above
Procedure, shortened: as §1

[9] = tested on: KURAMOCHI (Ovarian Carcinoma); test: as above
Procedure, shortened: as §1

[10] = tested on: HCC-78 (Lung Adenocarcinoma); test: as above
Procedure, shortened: as §1

[11] = tested on: DoTc2-4510 (Cervical Carcinoma); test: as above
Procedure, shortened: as §1

[12] = tested on: NCI-H2085 (Non-Small Cell Lung Carcinoma); test: as above
Procedure, shortened: as §1

[13] = tested on: Hs-578-T (Breast Carcinoma); test: as above
Procedure, shortened: as §1

[14] = tested on: ME-1 (Acute Myeloid Leukemia); test: combination Emax (second highest fraction inhibited in the dose matrix, 72 h); higher = more inhibition; extreme values may be limits of the assay
Procedure, shortened: as §1

[15] = tested on: CAL-148 (Breast Carcinoma); test: as above
Procedure, shortened: as §1

[16] = tested on: DoTc2-4510 (Cervical Carcinoma); test: as above
Procedure, shortened: as §1

[17] = tested on: Hs-578-T (Breast Carcinoma); test: as above
Procedure, shortened: as §1

Row | Structure (SMILES) | Bliss excess [1] | Bliss excess (HOS (Osteosarcoma)) | Bliss excess [2] | Bliss excess [3] | Bliss excess (KELLY (Neuroblastoma)) | Bliss excess [4] | Bliss excess (NB10 (Neuroblastoma)) | Bliss excess [5] | Bliss excess [6] | Bliss excess [7] | Bliss excess [8] | Bliss excess [9] | Bliss excess [10] | Bliss excess [11] | Bliss excess [12] | Bliss excess [13] | combination Emax [14] | combination Emax [15] | combination Emax [16] | combination Emax [17]
1 | C[C@@H](Oc1cc(-c2cnn(C3CCNCC3)c2)cnc1N)c1c(Cl)ccc(F)c1Cl [Crizotinib] + CC1=C(C(=CC=C1)Cl)NC(=O)C2=CN=C(S2)NC3=CC(=NC(=N3)C)N4CCN(CC4)CCO [Dasatinib] (first compound max 10 µM, 7x7, partner max 2 µM) | 0.0573 | -0.0153 | 0.0921 | -0.0055 | -0.019 | -0.0216 | -0.0423 | -0.0104 | -0.0351 | -0.0642 | 0.0269 | -0.0038 | 0.0887 | 0.0349 | 0.0551 | 0.0455 | 0.258 | 0.578 | 0.897 | 0.961
2 | C[C@@H](Oc1cc(-c2cnn(C3CCNCC3)c2)cnc1N)c1c(Cl)ccc(F)c1Cl [Crizotinib] + Cn1cnc2c(F)c(Nc3ccc(Br)cc3Cl)c(C(=O)NOCCO)cc21 [Selumetinib] (first compound max 10 µM, 7x7, partner max 10 µM) | 0.0092 | -0.0566 | -0.0087 | -0.0682 | 0.0644 | -0.0875 | -0.0221 | -0.0419 | -0.0173 | -0.0702 | -0.049 | -0.0483 | 0.0444 | -0.0514 | -0.0399 | -0.0131 | 0.458 | 0.578 | 0.292 | 0.512
3 | CS(=O)(=O)CCNCc1ccc(-c2ccc3ncnc(Nc4ccc(OCc5cccc(F)c5)c(Cl)c4)c3c2)o1 [Lapatinib] + Cn1cnc2c(F)c(Nc3ccc(Br)cc3Cl)c(C(=O)NOCCO)cc21 [Selumetinib] (first compound max 10 µM, 7x7, partner max 10 µM) | 0.0337 | -0.0848 | 0.145 | -0.0051 | -0.0152 | 0.0139 | 0.0376 | 0.0188 | 0.0085 | -0.0082 | -0.0344 | -0.0116 | -0.0196 | -0.0459 | -0.0366 | -0.0311 | 0.397 | 0.373 | 0.597 | 0.69
4 | O=C(c1cc(Cc2n[nH]c(=O)c3ccccc23)ccc1F)N1CCN(C(=O)C2CC2)CC1 [Olaparib] + CC1(C)CCC(CN2CCN(c3ccc(C(=O)NS(=O)(=O)c4ccc(NCC5CCOCC5)c([N+](=O)[O-])c4)c(Oc4cnc5[nH]ccc5c4)c3)CC2)=C(c2ccc(Cl)cc2)C1 [Venetoclax] (first compound max 10 µM, 7x7, partner max 1 µM) | -0.0509 | -0.0626 | 0.048 | -0.0036 | 0.0744 | -0.0167 | -0.0041 | -0.0522 | -0.0581 | -0.0197 | -0.0271 | -0.0482 | -0.0181 | -0.0462 | -0.0608 | -0.115 | 1 | 0.261 | 0.259 | 0.308
5 | O=C(c1cc(Cc2n[nH]c(=O)c3ccccc23)ccc1F)N1CCN(C(=O)C2CC2)CC1 [Olaparib] + CN(CC[C@H](CSC1=CC=CC=C1)NC2=C(C=C(C=C2)S(=O)(=O)NC(=O)C3=CC=C(C=C3)N4CCC(CC4)[C@H](C5=CC=CC=C5C6=CC=C(C=C6)Cl)O)S(=O)(=O)C(F)(F)F)CCO [AZD4320] (first compound max 10 µM, 7x7, partner max 1 µM) | -0.054 | 0.0192 | 0.0106 | 0.0247 | 0.134 | -0.0184 | -0.0471 | -0.0572 | 0.0335 | -0.0532 | -0.0076 | -0.0414 | -0.016 | 0.03 | -0.0134 | -0.0625 | 1 | 0.83 | 0.668 | 0.62
6 | O=C(c1cc(Cc2n[nH]c(=O)c3ccccc23)ccc1F)N1CCN(C(=O)C2CC2)CC1 [Olaparib] + COc1nnc2ccc(N3CCC(c4ccc(OCCN5CCN(C)C(=O)[C@H]5C)cc4)CC3)nn12 [AZD5153] (first compound max 10 µM, 7x7, partner max 1 µM) | -0.105 | -0.057 | -0.02 | 0.0457 | -0.042 | -0.0473 | -0.0558 | -0.0425 | -0.0366 | -0.0326 | -0.0889 | -0.0231 | -0.0169 | -0.0755 | -0.0423 | -0.0551 | 0.403 | 0.73 | 0.263 | 0.729
7 | O=C(c1cc(Cc2n[nH]c(=O)c3ccccc23)ccc1F)N1CCN(C(=O)C2CC2)CC1 [Olaparib] + Cc1c2c(nn1C)CSCc1cc(n(C)n1)CSc1cc(c3ccccc3c1)OCCCc1c(C(=O)O)n(C)c3c-2c(Cl)ccc13 [AZD5991] (first compound max 10 µM, 7x7, partner max 1 µM) | -0.0322 | -0.0292 | 0.0456 | 0.0053 | 0.0826 | 0.0249 | -0.0166 | -0.0392 | -0.005 | -0.0755 | -0.0371 | -0.0546 | -0.0244 | -0.0397 | -0.062 | -0.0621 | 0.551 | 0.635 | 0.224 | 0.489
8 | N#Cc1cnc(Nc2cc(NC[C@H]3CNCCO3)c(C(F)(F)F)cn2)cn1 [SRA737] + CCc1c2c(nc3ccc(O)cc13)-c1cc3c(c(=O)n1C2)COC(=O)[C@]3(O)CC [SN-38] (first compound max 10 µM, 7x7, partner max 0.3 µM) | -0.0711 | 0.0136 | -0.0022 | -0.034 | -0.0429 | 0.135 | -0.141 | 0.0047 | -0.0602 | 0.0325 | 0.0497 | -0.0093 | -0.0447 | 0.0093 | -0.0053 | 0.114 | 0.675 | 0.907 | 0.936 | 0.804
9 | N#Cc1cnc(Nc2cc(NC[C@H]3CNCCO3)c(C(F)(F)F)cn2)cn1 [SRA737] + Nc1ccn([C@@H]2O[C@H](CO)[C@@H](O)C2(F)F)c(=O)n1 [Gemcitabine] (first compound max 10 µM, 7x7, partner max 0.3 µM) | -0.0167 | 0.114 | 0.015 | 0.0316 | 0.0213 | 0.149 | 0.0922 | -0.0059 | 0.0721 | -0.0231 | 0.0477 | -0.0079 | 0.0509 | 0.135 | -0.0192 | 0.0695 | 0.66 | 0.845 | 0.803 | 0.837
10 | N#Cc1cnc(Nc2cc(NC[C@H]3CNCCO3)c(C(F)(F)F)cn2)cn1 [SRA737] + O=c1[nH]cc(F)c(=O)[nH]1 [5-Fluorouracil] (first compound max 10 µM, 7x7, partner max 20 µM) | -0.0495 | 0.0248 | 0.0623 | 0.0179 | 0.0153 | -0.0068 | -0.0036 | -0.0591 | 0.0099 | -0.111 | 0.0113 | -0.0351 | 0.0929 | -0.0201 | -0.0495 | 0.0056 | 0.471 | 0.497 | 0.231 | 0.612
11 | Cc1nc(-c2cn3c(n2)-c2ccc(-c4cnn(C(C)(C)C(N)=O)c4)cc2OCC3)n(C(C)C)n1 [Taselisib] + O=C(Nc1ccc2[nH]nc(-c3ccncc3)c2c1)[C@@H]1CCN(CC(=O)N2CCN(c3ccc(-c4ncccn4)cc3)CC2)C1 [SCH772984] (first compound max 10 µM, 7x7, partner max 5 µM) | 0.0708 | 0.0044 | 0.0562 | 0.124 | 0.135 | 0.008 | 0.0751 | -0.0046 | 0.103 | -0.0251 | -0.0305 | 0.0721 | 0.0886 | 0.0435 | -0.0174 | 0.0748 | 0.272 | 0.964 | 0.691 | 0.89
12 | CC1(C)CCC(CN2CCN(c3ccc(C(=O)NS(=O)(=O)c4ccc(NCC5CCOCC5)c([N+](=O)[O-])c4)c(Oc4cnc5[nH]ccc5c4)c3)CC2)=C(c2ccc(Cl)cc2)C1 [Venetoclax] + CS(=O)(=O)CCNCc1ccc(-c2ccc3ncnc(Nc4ccc(OCc5cccc(F)c5)c(Cl)c4)c3c2)o1 [Lapatinib] (first compound max 1 µM, 7x7, partner max 10 µM) | -0.0553 | -0.087 | -0.0212 | 0.0013 | 0.0417 | 0.0377 | -0.0238 | -0.0404 | -0.0237 | -0.0384 | -0.0597 | -0.0415 | -0.0248 | -0.0509 | -0.0267 | -0.0054 | 1 | 0.235 | 0.522 | 0.554
